The source made the active and inactive calls.
How the values were obtained:
[1] = THP-1 cell cytotoxicity, dose response, cytotoxicity control for Vif-APOBEC3G degradation inhibitor project, THP-1 cells (AID 1117359); type: functional; details: Human immunodeficiency virus 1, THP-1
[2] = target: T1, Epstein-Barr nuclear antigen 1 (Epstein-Barr virus (strain B95-8) (HHV-4) (Human herpesvirus 4), UniProt P03211); assay: EBNA-1 inhibitors, dose response, biochemical, fluorescence polarization, 1536-well (AID 2381); design: species or system human gammaherpesvirus 4;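 further: fluorescence polarization of a Cy5 DNA probe bound by EBNA-1 protein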
T1 sequence (P03211 whole entry): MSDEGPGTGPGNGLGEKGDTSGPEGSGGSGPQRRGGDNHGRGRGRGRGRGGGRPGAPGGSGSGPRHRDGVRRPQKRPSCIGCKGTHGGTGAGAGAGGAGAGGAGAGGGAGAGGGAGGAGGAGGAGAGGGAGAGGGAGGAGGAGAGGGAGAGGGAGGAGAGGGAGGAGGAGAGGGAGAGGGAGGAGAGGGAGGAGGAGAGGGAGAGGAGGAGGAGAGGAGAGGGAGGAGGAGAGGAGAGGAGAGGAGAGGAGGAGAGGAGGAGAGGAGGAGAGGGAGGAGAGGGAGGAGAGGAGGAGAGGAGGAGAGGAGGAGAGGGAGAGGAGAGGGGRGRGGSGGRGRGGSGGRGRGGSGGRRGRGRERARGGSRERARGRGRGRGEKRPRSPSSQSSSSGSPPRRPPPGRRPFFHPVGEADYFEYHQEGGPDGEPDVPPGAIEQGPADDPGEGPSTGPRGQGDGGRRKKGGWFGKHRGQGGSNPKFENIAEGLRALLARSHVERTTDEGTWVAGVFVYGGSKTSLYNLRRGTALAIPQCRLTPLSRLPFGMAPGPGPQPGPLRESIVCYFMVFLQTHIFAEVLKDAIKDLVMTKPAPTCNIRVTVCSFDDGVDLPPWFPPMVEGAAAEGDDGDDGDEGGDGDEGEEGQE

[3] = target: T2, Lytic switch protein BZLF1 (Epstein-Barr virus (strain B95-8) (HHV-4) (Human herpesvirus 4), UniProt P03206); assay: EBV ZTA inhibitors, dose response, counter-screen for EBNA-1 inhibitor project, biochemical, fluorescence polarization, Epstein-Barr virus, 1536-well (AID 2377); design: species or system human gammaherpesvirus 4;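 further: fluorescence polarization of Cy5-labelled ZRE DNA probe bound by purified Zta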
T2 sequence (P03206 whole entry): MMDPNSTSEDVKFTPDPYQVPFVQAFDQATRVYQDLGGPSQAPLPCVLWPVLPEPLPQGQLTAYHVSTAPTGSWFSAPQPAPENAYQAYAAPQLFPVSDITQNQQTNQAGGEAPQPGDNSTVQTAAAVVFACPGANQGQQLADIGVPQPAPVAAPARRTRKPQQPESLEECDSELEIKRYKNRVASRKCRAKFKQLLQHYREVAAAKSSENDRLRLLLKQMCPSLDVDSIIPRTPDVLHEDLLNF

[4] = target: Mitogen-activated protein kinase 10 (Homo sapiens, UniProt P53779); assay: Dose response biochemical screening assay for inhibitors of c-Jun N-Terminal Kinase 3 (JNK3). [Related pubchem assays: 746 ]
Mitogen-activated protein kinase 10, sequence (P53779 whole entry): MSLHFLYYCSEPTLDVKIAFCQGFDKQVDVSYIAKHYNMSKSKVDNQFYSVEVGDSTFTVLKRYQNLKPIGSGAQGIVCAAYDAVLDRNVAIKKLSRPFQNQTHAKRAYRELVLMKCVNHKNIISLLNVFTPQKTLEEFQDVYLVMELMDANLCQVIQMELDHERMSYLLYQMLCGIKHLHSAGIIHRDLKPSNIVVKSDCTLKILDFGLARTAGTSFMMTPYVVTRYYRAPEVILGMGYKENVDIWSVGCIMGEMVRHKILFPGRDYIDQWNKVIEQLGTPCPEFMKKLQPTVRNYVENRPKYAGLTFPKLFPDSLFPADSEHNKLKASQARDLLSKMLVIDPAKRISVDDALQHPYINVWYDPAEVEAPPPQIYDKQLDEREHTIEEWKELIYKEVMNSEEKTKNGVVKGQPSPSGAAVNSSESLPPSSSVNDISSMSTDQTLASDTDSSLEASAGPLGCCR

[5] = target: Paired box protein Pax-8 (Homo sapiens, UniProt Q06710); assay: inhibitors of PAX8-driven TPO luciferase reporter, dose response, RMG-I cells, cherry-pick (AID 687027); type: functional, cell-based;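 further: luciferase reporter driven by Pax8 target thyroperoxidase promoter measured by SteadyGlo luminescence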
Paired box protein Pax-8, sequence (Q06710 whole entry): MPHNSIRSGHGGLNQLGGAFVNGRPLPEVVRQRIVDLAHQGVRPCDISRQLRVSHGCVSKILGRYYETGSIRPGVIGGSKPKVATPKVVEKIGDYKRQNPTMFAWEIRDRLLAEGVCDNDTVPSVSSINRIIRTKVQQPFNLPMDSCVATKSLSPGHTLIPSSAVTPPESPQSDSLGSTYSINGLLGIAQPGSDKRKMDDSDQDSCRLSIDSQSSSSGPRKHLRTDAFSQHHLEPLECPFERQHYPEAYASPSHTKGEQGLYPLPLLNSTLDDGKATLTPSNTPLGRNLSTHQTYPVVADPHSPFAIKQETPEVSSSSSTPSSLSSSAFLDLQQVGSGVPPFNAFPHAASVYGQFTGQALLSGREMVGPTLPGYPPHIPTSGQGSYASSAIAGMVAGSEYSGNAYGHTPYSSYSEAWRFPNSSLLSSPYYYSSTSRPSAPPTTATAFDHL

[6] = cytotoxicity in OVCAR8 ovarian cancer cells, dose response, PAX8 project, cell-based, plate reader, dry powder samples (AID 743197); type: functional; details: OVCAR-8
[7] = inhibitors of HIV Env-driven cell fusion, dose response, cherry-pick (AID 652057); type: functional, cell-based
[8] = CEM21 lymphoblast cell cytotoxicity, dose response, cytotoxicity control for viral fusion inhibitor project, CellTiter-Glo luminescence, cherry-picked (AID 652042); type: functional, cell-based;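 further: potency for signal decrease meaning cytotoxicity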
[9] = target: T3, Short transient receptor potential channel 4 (Mus musculus, UniProt Q9QUQ5); assay: mouse TRPC4 channel activators, dose response, cell-based, HEK293 TRPC4/mu-opioid, Fluo-4 calcium (AID 434937); type: functional
T3 sequence (Q9QUQ5 whole entry): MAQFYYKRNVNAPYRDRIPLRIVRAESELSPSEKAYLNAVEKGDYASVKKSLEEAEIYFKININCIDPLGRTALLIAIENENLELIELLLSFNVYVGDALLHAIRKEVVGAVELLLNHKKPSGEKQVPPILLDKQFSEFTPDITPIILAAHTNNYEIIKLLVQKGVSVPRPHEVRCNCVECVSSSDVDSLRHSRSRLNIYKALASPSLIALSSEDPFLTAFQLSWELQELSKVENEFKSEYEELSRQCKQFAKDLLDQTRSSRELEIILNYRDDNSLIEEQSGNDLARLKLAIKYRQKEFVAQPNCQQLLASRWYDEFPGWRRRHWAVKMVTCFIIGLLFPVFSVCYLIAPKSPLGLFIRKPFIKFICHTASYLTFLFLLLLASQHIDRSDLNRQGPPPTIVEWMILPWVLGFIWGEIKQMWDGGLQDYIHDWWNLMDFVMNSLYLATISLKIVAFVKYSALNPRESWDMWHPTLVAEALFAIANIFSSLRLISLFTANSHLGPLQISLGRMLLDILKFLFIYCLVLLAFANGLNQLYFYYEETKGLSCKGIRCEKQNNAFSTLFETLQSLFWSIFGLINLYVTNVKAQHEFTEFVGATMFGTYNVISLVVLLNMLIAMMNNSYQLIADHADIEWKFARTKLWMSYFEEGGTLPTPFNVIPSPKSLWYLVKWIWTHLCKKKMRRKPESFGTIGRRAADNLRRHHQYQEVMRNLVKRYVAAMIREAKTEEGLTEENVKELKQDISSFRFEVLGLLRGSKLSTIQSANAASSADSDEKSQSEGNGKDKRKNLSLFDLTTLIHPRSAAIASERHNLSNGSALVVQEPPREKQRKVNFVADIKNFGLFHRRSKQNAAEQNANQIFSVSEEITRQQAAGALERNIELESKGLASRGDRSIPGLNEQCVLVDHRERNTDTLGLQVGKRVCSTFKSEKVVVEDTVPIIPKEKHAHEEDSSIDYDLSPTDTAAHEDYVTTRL

[10] = inhibitors of clade B AD8 Env fusion, dose response, cell-based, cherry-pick (AID 652062); type: functional;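 further: luciferase signal from cell-cell fusion driven by HIV-1 clade B AD8 Env; potency is for inhibitors of fusion seen as a drop in luminescence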
[11] = ZM109 Env clade C HIV-1 fusion inhibitors, dose response, HeLa effector, CEM target cells, luciferase, cherry-pick (AID 652058); type: functional, cell-based
[12] = off-target signal loss in HeLa-CEM21 co-culture – HeLa F-luc CTL cells, cherry-picked, counter-screen for HIV-1 Env fusion inhibitor project, dose response (AID 652040); type: functional, cell-based;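 further: potency for signal decrease marking cytotoxic or nonspecific inhibition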
[13] = inhibitors of intracellular T. cruzi replication, confirmation, NIH3T3 host cells, beta-gal luminescence (AID 2044); type: functional, cell-based;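 further: intracellular parasites grown in NIH/3T3 mouse fibroblasts as host cells; luminescent beta-galactosidase reporter signal from transgenic T. cruzi replicating inside host cells; inhibitors lower the luminescence signal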
[14] = cytotoxicity toward NIH3T3 fibroblasts, dose response, counter-screen, cell-based, ATP luminescence, mouse fibroblasts (AID 2010); type: functional;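 further: cells exposed to compound for about 90 hours before reading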
[15] = cells
[16] = NIH-3T3 fibroblast cytotoxicity, dose response, cytotoxicity control, cell-based, fluorescence, Alamar Blue, secondary assay (AID 2327); type: functional;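 further: NIH-3T3 mouse fibroblasts cultured with fluconazole at 8 µg/mL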
[17] = C. albicans growth with fluconazole, confirmation, fluorescence, retest (AID 2467); type: functional, cell-based
[18] = tested on: INS1; assay: beta cell apoptosis inhibitors, cytokine rescue, dose response, luminescence, retest (AID 449756); type: functional, cell-based; details: Rattus norvegicus;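 further: cell death triggered by IL-1 beta plus TNF-alpha plus IFN-gamma mixture; protective hits raise ATP signal compared with cytokine alone wells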
[19] = HepG2 cell cytotoxicity, dose response, cytotoxicity control, ATP luminescence, cherry-pick, activator set 2 (AID 1053143); type: functional, cell-based
[20] = P. falciparum Dd2 growth inhibitors, dose response, SYBR Green, dry powder samples (AID 1159566); type: functional, cell-based;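 further: potency for growth inhibition with lower SYBR green DNA signal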
[21] = P. falciparum 3D7-ScDHODH growth inhibitors, dose response, SYBR Green, dry powder samples (AID 1159570); type: functional, cell-based;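 further: parasite growth measured after 72 hours of compound exposure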
[22] = P. falciparum Dd2 growth inhibitors, dose response, SYBR Green, cherry-picked samples (AID 1159567); type: functional, cell-based
[23] = P. falciparum ATP4 D1247Y mutant growth inhibitors, dose response, NITD609-resistant line, SYBR Green, dry powder (AID 1159571); type: functional, cell-based;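 further: parasites synchronized at ring stage by sorbitol before testing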
[24] = HEp-2 cell cytotoxicity, dose response, cytotoxicity control for RSV inhibitor project, HTS (AID 2410); type: functional; details: human respiratory syncytial virus
[25] = microbe, parasite or virus in culture; type: functional; details: Mycobacterium tuberculosis
[26] = target: T4, Mannose-6-phosphate isomerase (Homo sapiens, UniProt P34949); assay: human PMI inhibitors, high substrate, primary screen, biochemical, fluorescence intensity, high mannose 6-phosphate (AID 1220)
T4 sequence (P34949 whole entry): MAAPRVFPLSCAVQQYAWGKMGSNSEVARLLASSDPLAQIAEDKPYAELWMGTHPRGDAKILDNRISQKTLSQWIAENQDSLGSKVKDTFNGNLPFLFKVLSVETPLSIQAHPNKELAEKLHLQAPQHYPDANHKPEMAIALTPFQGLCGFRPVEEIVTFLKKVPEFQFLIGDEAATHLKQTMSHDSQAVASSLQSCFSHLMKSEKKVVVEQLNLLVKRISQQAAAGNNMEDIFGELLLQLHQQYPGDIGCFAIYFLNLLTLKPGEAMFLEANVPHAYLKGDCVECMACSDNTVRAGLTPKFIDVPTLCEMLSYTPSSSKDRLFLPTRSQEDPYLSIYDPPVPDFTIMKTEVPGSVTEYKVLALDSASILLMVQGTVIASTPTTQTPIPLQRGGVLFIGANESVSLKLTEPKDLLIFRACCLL

[27] = target: T5, Rac GTPase-activating protein 1 (Homo sapiens, UniProt Q9H0H5); assay: MgcRacGAP GTPase-activating activity inhibitors, confirmation, biochemical, ADP Hunter fluorescence, primary and confirmatory (AID 624330); type: functional
T5 sequence (Q9H0H5 whole entry): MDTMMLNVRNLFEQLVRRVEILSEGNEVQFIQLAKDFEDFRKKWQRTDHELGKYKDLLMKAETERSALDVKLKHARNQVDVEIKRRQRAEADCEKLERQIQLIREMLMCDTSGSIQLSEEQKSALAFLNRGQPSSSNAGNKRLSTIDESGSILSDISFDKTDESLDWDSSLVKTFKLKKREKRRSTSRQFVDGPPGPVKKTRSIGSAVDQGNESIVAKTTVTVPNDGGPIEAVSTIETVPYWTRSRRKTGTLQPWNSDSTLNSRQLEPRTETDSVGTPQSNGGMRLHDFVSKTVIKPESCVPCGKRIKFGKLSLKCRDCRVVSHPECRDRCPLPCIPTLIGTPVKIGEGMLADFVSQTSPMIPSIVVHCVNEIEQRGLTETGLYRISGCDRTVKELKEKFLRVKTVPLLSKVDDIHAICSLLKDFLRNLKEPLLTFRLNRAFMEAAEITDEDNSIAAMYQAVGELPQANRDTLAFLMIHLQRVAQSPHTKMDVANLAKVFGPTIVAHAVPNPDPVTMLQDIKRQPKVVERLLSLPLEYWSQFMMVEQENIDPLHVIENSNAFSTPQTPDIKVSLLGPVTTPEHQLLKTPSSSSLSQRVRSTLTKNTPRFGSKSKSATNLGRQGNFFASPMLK

C=CCN1C(=O)c2ccc(C(=O)N3CCN(c4ccccc4OC)CC3)cc2C1=O
CC50 [1]: > 40 µM (active)

COc1cc(-c2nc3n(n2)C(c2cccc(OC)c2OC)C2=C(O)CCCC2=N3)cc(OC)c1OC (stereo unspecified)
IC50 [2]: 12.9 µM (not active)
IC50 [3]: > 111 µM (not active)

O=C1CCCc2nn(-c3ccccc3)c(-c3ccncc3)c21
IC50 [4]: 42.3 µM (not active)

O=C(C[C@@H]1C[C@@H]2c3cc(NS(=O)(=O)c4ccc(F)cc4)ccc3O[C@@H]2[C@@H](CO)O1)NCc1ccc(-c2ccccc2)cc1
AC50 [5]: 4.41 µM (active)
AC50 [6]: > 70 µM (inactive)

COc1cc(C)c(CNCCc2c[nH]c3ccccc23)cc1C
AC50 [7]: 1.51 µM (active)
AC50 [8]: 22.9 µM (active)
EC50 [9]: 2.66 µM (active)
AC50 [10]: 6.52 µM (active)
AC50 [11]: 0.482 µM (active)
AC50 [12]: 3.7 µM (active)

COc1ccc(/C=C/CN2CCN(Cc3ccccc3)C(CCO)C2)cc1 (stereo unspecified)
CC50 [1]: > 40 µM (active)

O=C(Nc1ccccc1F)c1cc2c(s1)-c1ccccc1S(=O)(=O)C2
IC50 [2]: 15.9 µM (not active)
IC50 [3]: 93.7 µM (not active)

CCCn1ncc(CN2CCCC(C(=O)c3cccc(OC)c3)C2)c1C (stereo unspecified)
EC50 [13]: < 0.1 µM (active)
EC50 [14]: 26.4 µM (active)
EC50 [15]: 0.016 µM (active)

CCN1/C(=C/c2cccc[n+]2C)Sc2ccc(OC)cc21
EC50 [16]: > 150 µM (inactive)
EC50 [13]: < 0.1 µM (active)
EC50 [14]: > 60 µM (not active)
EC50 [17]: 0.961 µM (active)
AC50 [18]: 1.65 µM (active)
EC50 [15]: 0.084 µM (active)

CCOC(=O)c1ccc(Cn2cnc3ccccc3c2=O)cc1
IC50 [4]: 12.3 µM (not active)

CN(CCOc1ccc(Br)cc1)CC(O)c1ccccc1 (stereo unspecified)
EC50 [9]: 1.33 µM (active)
EC50 [13]: < 0.1 µM (active)
EC50 [14]: > 60 µM (not active)
EC50 [15]: 0.269 µM (active)

Oc1cc(-c2ccccc2)nc2nc3ccccc3n12
IC50 [4]: > 31 µM (not active)
AC50 [19]: 26 µM (active)

COc1ccc2c3c([nH]c2c1)[C@H](CO)N(C(=O)C1CCCCC1)CC31CCN(Cc2nccs2)CC1
AC50 [20]: 0.183 µM (active)
AC50 [21]: 0.158 µM (active)
AC50 [22]: 0.833 µM (active)
AC50 [23]: 0.198 µM (active)

COC(=O)c1sccc1NC(=O)CN1CCN(c2ccc(F)cc2)CC1
IC50 [4]: 15.6 µM (not active)
CC50 [24]: 22.2 µM (active)

Cc1ccccc1-c1nc(CN2CCC(C(=O)NCCC3=CCCCC3)CC2)c(C)o1
AC50 [7]: 4.21 µM (active)
AC50 [8]: 25.6 µM (active)
CC50 [25]: > 40 µM (active)
AC50 [10]: 7.96 µM (active)
AC50 [11]: 6.35 µM (active)
AC50 [12]: 7.7 µM (active)

O=[N+]([O-])c1ccc2c(c1NCCO)=NC1(CCCCC1)[N+]=2[O-]
IC50 [26]: > 50 µM (not active)

CCOC(=O)c1sc(/N=C/c2c(O)ccc3ccccc23)cc1C
IC50 [26]: > 50 µM (not active)
IC50 [27]: 139 µM (active)

Reference: ChEMBL document CHEMBL1201862, “PubChem BioAssay data set” (2004)
